Source: ChEMBL document CHEMBL4765428, “Design, synthesis, and electrophysiological evaluation of NS6740 derivatives: Exploration of the structure-activity relationship for alpha7 nicotinic acetylcholine receptor silent activation” (Eur J Med Chem, 2020)
Activity calls are given as the source filed them. The rule behind the calls is not given here.

Legend:
[1] = target: T1, Neuronal acetylcholine receptor subunit alpha-7 (Homo sapiens, UniProt P36544); assay: (§1) Partial agonist activity at human alpha7 nAChR expressed in Xenopus laevis oocytes assessed as residual potentiation of Ach response at 10 uM at -60 mV holding potential by measuring net charge preincubated with compound followed by Ach addition after PNU-120596 addition by two electrode voltage-clamp assay; type: cell-based; conditions: Oocyte
T1 sequence (P36544 whole entry): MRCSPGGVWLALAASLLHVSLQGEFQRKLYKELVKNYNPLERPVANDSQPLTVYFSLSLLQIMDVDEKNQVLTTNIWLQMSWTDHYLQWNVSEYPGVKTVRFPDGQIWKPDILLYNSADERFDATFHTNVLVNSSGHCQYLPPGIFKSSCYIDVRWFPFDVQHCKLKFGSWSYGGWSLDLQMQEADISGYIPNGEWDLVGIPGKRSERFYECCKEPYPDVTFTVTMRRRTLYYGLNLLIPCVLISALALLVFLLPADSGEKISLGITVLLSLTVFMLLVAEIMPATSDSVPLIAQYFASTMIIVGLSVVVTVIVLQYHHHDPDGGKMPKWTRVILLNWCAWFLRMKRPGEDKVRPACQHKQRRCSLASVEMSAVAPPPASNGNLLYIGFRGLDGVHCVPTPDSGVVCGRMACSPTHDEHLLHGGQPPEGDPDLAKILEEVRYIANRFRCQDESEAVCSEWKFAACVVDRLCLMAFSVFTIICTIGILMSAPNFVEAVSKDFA

[2] = target: T1, Neuronal acetylcholine receptor subunit alpha-7; assay: Partial agonist activity at human alpha7 nAChR expressed in Xenopus laevis oocytes assessed as direct potentiation of Ach response at 10 uM at -60 mV holding potential by measuring net charge co-application of compound and PNU-120596 by two electrode voltage-clamp assay; type: cell-based; conditions: Oocyte
[3] = target: T1, Neuronal acetylcholine receptor subunit alpha-7; assay: Partial agonist activity at human alpha7 nAChR expressed in Xenopus laevis oocytes at 10 uM at -60 mV holding potential by measuring net charge by two electrode voltage-clamp assay; type: cell-based; conditions: Oocyte
[4] = target: T1, Neuronal acetylcholine receptor subunit alpha-7; assay: Partial agonist activity at human alpha7 nAChR expressed in Xenopus laevis oocytes at -60 mV holding potential by two electrode voltage-clamp assay; type: cell-based, Oocyte; conditions: for Imax: Oocyte, filed as partial agonist
[5] = target: T1, Neuronal acetylcholine receptor subunit alpha-7; assay: Partial agonist activity at human alpha7 nAChR expressed in Xenopus laevis oocytes at 1 to 30 uM at -60 mV holding potential by two electrode voltage-clamp assay; type: cell-based; conditions: Oocyte, dose 1-30 µM
[6] = target: T1, Neuronal acetylcholine receptor subunit alpha-7; assay: Partial agonist activity at human alpha7 nAChR expressed in Xenopus laevis oocytes assessed as direct potentiation of Ach response at 30 uM at -60 mV holding potential by measuring net charge co-application of compound and PNU-120596 by two electrode voltage-clamp assay; type: cell-based; conditions: Oocyte, filed as partial agonist
[7] = target: T1, Neuronal acetylcholine receptor subunit alpha-7; assay: Partial agonist activity at human alpha7 nAChR expressed in Xenopus laevis oocytes assessed as inhibition of Ach response at 3 uM at -60 mV holding potential by measuring net charge preincubated with compound followed by Ach stimulation by two electrode voltage-clamp assay; type: cell-based; conditions: Oocyte
[8] = target: T1, Neuronal acetylcholine receptor subunit alpha-7; assay: Partial agonist activity at human alpha7 nAChR expressed in Xenopus laevis oocytes assessed as inhibition of Ach response at 10 to 30 uM at -60 mV holding potential by measuring net charge preincubated with compound followed by Ach addition by two electrode voltage-clamp assay; type: cell-based; conditions: Oocyte, dose 10-30 µM
[9] = target: T1, Neuronal acetylcholine receptor subunit alpha-7; assay: as §1, with “3” for “10”; type: cell-based; conditions: Oocyte, filed as partial agonist
[10] = target: T1, Neuronal acetylcholine receptor subunit alpha-7; assay: Partial agonist activity at human alpha7 nAChR expressed in Xenopus laevis oocytes assessed as inhibition of Ach response at 30 uM at -60 mV holding potential by measuring net charge preincubated with compound followed by Ach stimulation by two electrode voltage-clamp assay; type: cell-based; conditions: Oocyte, filed as partial agonist
[11] = target: T1, Neuronal acetylcholine receptor subunit alpha-7; assay: as §1, with “30” for “10”; type: cell-based; conditions: Oocyte, filed as partial agonist

| Compound | Activity ([1]; filed as partial agonist) | Activity ([2]; filed as partial agonist) | Activity ([3]; filed as partial agonist) | Activity ([8]; filed as partial agonist) | Activity [8] | Activity [3] | Activity [1] | further results |
| --- | --- | --- | --- | --- | --- | --- | --- | --- |
| C[N+]12CCC(CC1)N(C(=O)c1ccc(-c3cccc(C(F)(F)F)c3)o1)CC2 | 1.39 | Active | 0.79 |  |  |  |  | EC50 [4]: 322 nM; Imax [4]: 0.81 |
| O=C(c1ccc(-c2cccc(C(F)(F)F)c2)o1)N1CCN2CCC1CC2 | 111 |  |  | 0.19 |  |  |  | Activity [5]: inactive; Activity [6]: 2.73; Activity [7]: inactive; Activity [9]: 123; Activity [10]: 0.18; Activity [11]: 57.4 |
| O=C(c1ccc(-c2cccc([N+](=O)[O-])c2)o1)N1CCN2CCC1CC2 | 4.78 | 12.2 |  |  | inactive | inactive |  |  |
| O=C(c1ccc(-c2cccc(C(F)(F)F)c2)o1)N1CC2CCN(CC2)C1 |  |  |  |  | inactive | inactive | inactive | Activity [2]: inactive |
| O=C(c1ccc(-c2cncc3ccccc23)o1)N1CCN2CCC1CC2 |  | 20.4 | 0.11 | 0.94 |  |  | inactive |  |
| O=C(c1ccc(-c2cccc(C(F)(F)F)c2)o1)N1C[C@@H]2C[C@H]1CN2 |  | 15.2 |  |  | inactive | inactive | inactive |  |
| O=C(c1ccc(-c2ccc3ccccc3c2)o1)N1CCN2CCC1CC2 |  |  | 0.15 | 1.18 |  |  | inactive | Activity [2]: inactive |
| FC(F)(F)c1cccc(-c2ccc(CN3CCN4CCC3CC4)o2)c1 |  |  |  |  |  | inactive | inactive | Activity [2]: inactive |
| CCN1CCN2CCC1CC2 |  |  |  |  | inactive | inactive |  | Activity [2]: inactive |
| CC(=O)N1CCN2CCC1CC2 |  | Active |  |  |  | inactive | inactive |  |
| C1CN2CCC(CC2)N1 |  |  |  |  | inactive | inactive | inactive | Activity [2]: inactive |
| O=C(c1ccc(-c2cccc(F)c2)o1)N1CCN2CCC1CC2 | Active |  |  | Active |  | inactive |  |  |
| O=C(c1ccc(-c2cccc(I)c2)o1)N1CCN2CCC1CC2 | Active |  |  | Active |  | inactive |  |  |
| O=C(c1ccc(-c2cccc(C(F)(F)F)c2)o1)N1C[C@H]2C[C@@H]1CN2 |  | 43.7 |  |  | inactive | inactive | inactive |  |
| O=C(c1ccc(-c2cccc(O)c2)o1)N1CCN2CCC1CC2 | Active |  |  |  | inactive | inactive |  |  |
| O=C(c1ccc(-c2ccccc2)o1)N1CCN2CCC1CC2 | 18.3 |  | 0.54 | 0.14 |  |  |  |  |
| Nc1cccc(-c2ccc(C(=O)N3CCN4CCC3CC4)o2)c1 |  | 24.6 | 0.1 | 0.5 |  |  |  |  |
| O=C(c1ccc(-c2ccoc2)o1)N1CCN2CCC1CC2 | Active |  | Active | Active |  |  |  |  |
| Cc1cccc(-c2ccc(C(=O)N3CCN4CCC3CC4)o2)c1 | 30.7 |  |  | 0.2 |  | inactive |  |  |
| O=C(c1ccc(-c2cccc(Br)c2)o1)N1CCN2CCC1CC2 | Active |  |  | Active |  | inactive |  |  |
| O=C(c1ccc(-c2cccc(Cl)c2)o1)N1CCN2CCC1CC2 | Active |  |  |  | 0.04 | inactive |  |  |
| O=C(c1ccco1)N1CCN2CCC1CC2 |  | Active | 0.71 |  |  |  | inactive | EC50 [4]: 764 nM; Imax [4]: 0.71 |
| O=C(c1ccc(-c2ccc(C(F)(F)F)cc2)o1)N1CCN2CCC1CC2 | 3.23 | 6.25 | 0.4 | 0.64 |  |  |  |  |
| CCN(CC)C(=O)c1ccc(-c2cccc(C(F)(F)F)c2)o1 |  |  |  |  | inactive | inactive | inactive | Activity [2]: inactive |
